What was measured:
[1] = test system: mouse E18 primary hippocampal neurons; assay: Toxicity of the peptides: phase contrast morphology and LDH assay, 5 days treatment; assay type: cell-based
From the text: To screen these peptides, primary neuronal cell cultures were used from embryonic day 18 (E18) C57BL/6 mouse hippocampus. At the fourth day in vitro (DIV), the culture medium was exchanged with the medium containing the peptides. The primary neuronal cultures were established as taught in the art (see, e.g., Cardenas-Aguayo Mdel, Santa-Olalla et al. 2003, hereby incorporate by reference). Briefly, C57BL/6 time pregnant E18 female mice from Charles River Labs were anesthetized and killed by cervical dislocation following our Institutional Animal Care and Use Committee (IACUC) regulations and approved protocol. Embryos were removed and placed in cold Hibernate A (available from Brain bits, Springfield, Ill., USA), and all of the following steps were performed in ice-cold Hibernate A, under a stereoscopic (dissection) microscope placed in a laminar flow hood. Fetal brains were removed carefully and fore brain were separated. Then, the hippocampus, including the cortex surrounding the area of the hippocampus, was dissected and cut into small pieces using microsurgical scissors. The cut tissue was transferred with number 5 forceps to 15 ml tubes containing 0.1% trypsin in Versene (Invitrogen Life Technologies, Grand Island, N.Y., USA) and incubated for 15 min at 37° C. followed by inactivation with 10% fetal bovine serum (FBS) in Neurobasal complete medium (Neurobasal Medium supplemented with 2×B-27, 0.30% glutamine, and penicillin/streptomycin 0.1 mg/ml and 0.1 U/ml respectively). All medium components were purchased from Invitrogen, Grand Island, N.Y., USA. […]
To study any toxic effect of the peptides, mouse E18 primary hippocampal neurons were treated with the five BDNF peptides individually for up to 5 days at different doses [5 nM, 25 nM, 50 nM (data not shown), 100 nM (0.1 μM), 1000 nM (1 μM), and 10,000 nM (10 μM)]. […] Accordingly, there was no significant change in the viability of cells treated with any of the peptides as evaluated by the lactate dehydrogenase (LDH) assay (see FIG. 2B). […]

BDNF = BDNF expression, Western blot, 5 days treatment; assay type: cell-based, mouse
Protocol: Following treatment in 6-well plates, cells were washed 2× in glucose buffered saline, GBS (5.4 mM KCl, 138 mM NaCl, 22 mM glucose, and 2 mM Na—KPO pH 7.2), and then lysed by 5 min incubation on ice in 100 or 150 μl of ice-cold RIPA buffer (PBS, 1% w/v NP-40 from Fisher Scientific, 0.1% w/v SDS, and 0.5% w/v sodium desoxycholate) containing 1 mM AEBSF (Gold Biotechnology, St. Louis, Mo., USA), 10 μg/ml aprotinin (Sigma-Aldrich, St. Louis, Mo., USA), and 20 μg/ml of leupeptin and pepstatin (US Biochemicals, Cleveland, Ohio, USA), and phosphatase inhibitors: NaF, Na orthovanadate, (3-glycerophosphate, and microcystein (Sigma-Aldrich, St. Louis, Mo., USA). Extracts were prepared by collecting and pooling a minimum of 2 wells by scraping, and lysates were centrifuged at 20,000×g for 10 min at 4° C. Protein concentration of each cell lysate was determined using the BCA kit (Thermo Scientific, Rockford, Ill., USA). The lysates (7.5-20 μg total protein) were separated on 10% SDS-PAGE gels (except for BDNF where 12% gels were employed) and transferred to 0.45 μm PVDF membrane (Pall, Pensacola, Fla., USA) for probing with antibodies as noted. Blots were blocked for 1 hr at 37° C. in 1×TBST (0.05% Tween 20 in TBS) containing 5% w/v blotting grade dry milk (Bio-rad, Hercules, Calif., USA), incubated in primary antibody overnight in blocking buffer at 4° C., washed 3×10 min in TBST at room temperature, followed by incubation with secondary antibody, i.e., peroxidase-conjugated anti-mouse or anti rabbit IgG (Jackson ImmunoResearch Laboratories, West Grove, Pa., USA) diluted in blocking buffer. Blots were washed 3×10 min in TBST and immunoreactive protein bands were visualized with enhanced chemiluminescence (ECL) reagents (Pierce, Rockford, Ill., USA). The ECL films of the blots were scanned and analyzed using Multi Gauge software version 3.0 (Fujifilm, Tokyo, Japan).
The following primary antibodies were used: rabbit polyclonal anti-NFM (1:1000; Chemicon/Millipore, Billerica, Mass., USA); mouse monoclonal anti-NeuN, clone A60 (1:500; Millipore, Billerica, Mass., USA); rabbit polyclonal anti-Tuj-1, (3—III-tubulin (Covance; 1:800, Emeryville, Calif., USA); mouse monoclonal SMI 52 to the adult isoforms of MAP-2, MAP2a,b (1:1000; Covance, Emeryvilly, Calif., USA); rabbit polyclonal anti-Synapsin I (1:2000; Stressgen, Farmingdale, N.Y., USA); rabbit monoclonal anti-PSD95 (1:1000; Cell signaling, Danvers, Mass., USA); anti tau 92e (1:10000); mouse monoclonal anti-BDNF (1:1000; Calbiochem, Gibbstown, N.J., USA); rabbit polyclonal anti-TrkB (total) (1:500; Santa Cruz Biotechnology, Santa Cruz, Calif., USA); rabbit polyclonal anti-pTrkB (Tyr706) (1:400; Santa Cruz Biotechnology, Santa Cruz, Calif., USA), TrkC (1:1000; Cruz Biotechnology, Santa Cruz, Calif., USA); and pTrkY490 (1:500; Upstate USA Inc., Charlottesville, Va., USA). For loading control, the blots were developed with rabbit polyclonal antibody to GAPDH (1:2000; Santa Cruz Biotechnology, Santa Cruz, Calif., USA).
To investigate the molecular mechanism by which the BDNF peptides promoted neurogenic/neurotrophic activities, the hippocampal primary cultured neurons were treated with the peptides or BDNF for five days and compared with the control medium treated cells.

Substance: Ac-S-KKR-CONH2 [Peptide B-3]
- cell death (LDH assay) vs vehicle treated cells ([1]; 0.1 μM): significant reduction in cell death
- cell death (LDH assay) vs vehicle treated cells ([1]; 1 μM): significant reduction in cell death
- expression of BDNF (Western blot) (BDNF; 0.1 μM): not at 0.1 μM
- expression of BDNF (Western blot) (BDNF; 1 μM): induced an increase
- expression of BDNF (Western blot) (BDNF; vs control medium): induced the expression of BDNF

Substance: Ac-I-K-R-G-CONH2 [Peptide B-5]
- expression of BDNF (Western blot) (BDNF; 0.1 μM): strongest induction
- expression of BDNF (Western blot) (BDNF; 1 μM): lost
- expression of BDNF (Western blot) (BDNF; vs control medium): induced the expression of BDNF

From US9512178B2, “Neurogenic brain-derived neurotrophic factor peptides” (Research Foundation for Mental Hygiene, Inc., priority 2012, dated 2016)
